Key:
stromelysin = stromelysin (Homo sapiens, UniProt P08254); test: Stromelysin inhibition activity (14C-acetylated casein digestion, Cawston et al); format: biochemical
collagenase = target: T1, collagenase (Homo sapiens, UniProt P03956); settings: for IC50: collagenase, 37°, 16 hours, pH 7.5, 14C collagen
T1 sequence (P03956 100-469): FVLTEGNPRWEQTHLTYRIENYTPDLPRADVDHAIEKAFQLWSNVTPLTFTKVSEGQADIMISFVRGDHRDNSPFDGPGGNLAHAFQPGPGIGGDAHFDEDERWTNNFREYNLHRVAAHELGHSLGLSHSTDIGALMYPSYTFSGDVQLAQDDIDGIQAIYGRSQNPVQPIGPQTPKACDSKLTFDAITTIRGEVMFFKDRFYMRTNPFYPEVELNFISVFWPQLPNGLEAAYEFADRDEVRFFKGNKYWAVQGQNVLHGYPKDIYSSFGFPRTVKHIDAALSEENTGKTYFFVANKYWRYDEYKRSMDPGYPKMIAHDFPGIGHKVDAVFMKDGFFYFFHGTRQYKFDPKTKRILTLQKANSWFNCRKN
Text: The collagen was acetylated ^14 C collagen prepared by the method of Cawston and Murphy (Methods in Enzymology, 80, 711, 1981), hereby incorporated by reference. The samples were centrifuged to sediment undigested collagen and an aliquot of the radioactive supernatant removed for assay on a scintillation counter as a measure of hydrolysis.

Sequence of stromelysin (P08254 100-477): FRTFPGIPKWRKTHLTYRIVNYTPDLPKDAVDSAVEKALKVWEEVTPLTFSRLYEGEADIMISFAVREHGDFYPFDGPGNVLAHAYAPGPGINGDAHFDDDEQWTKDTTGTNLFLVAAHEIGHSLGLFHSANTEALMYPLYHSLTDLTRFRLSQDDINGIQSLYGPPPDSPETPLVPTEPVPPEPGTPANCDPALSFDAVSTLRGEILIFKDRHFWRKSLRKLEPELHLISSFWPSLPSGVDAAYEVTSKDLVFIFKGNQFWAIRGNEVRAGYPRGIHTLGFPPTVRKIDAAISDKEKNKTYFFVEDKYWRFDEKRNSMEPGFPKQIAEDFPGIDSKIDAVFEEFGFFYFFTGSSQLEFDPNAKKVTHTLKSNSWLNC

Row | SMILES | IC50 (stromelysin; stromelysin, 37°, 16 hours, pH 7.5, 14C acetylated casein) [µM] | IC50 (collagenase) [µM] | protoglycanase-inhibiting activity (in words) (stromelysin; qualitative statement, protoglycanase = stromelysin (b9)) | collagenase-inhibiting activity (in words) (collagenase; qualitative statement)
1 | CNC(=O)[C@H](Cc1ccccc1)NC(=O)[C@H](CC(C)C)[C@H](CSc1ccccc1)C(=O)NO [Example 1, [4-(N-Hydroxyamino)-2R-isobutyl-3S-(phenylthiomethyl)-succinyl]-L-phenylalanine-N-methylamide] | 0.01 | 0.02 | – | –
2 | CNC(=O)[C@H](Cc1ccccc1)NC(=O)[C@H](CC(C)C)[C@H](CSc1cccs1)C(=O)NO [Example 2, [4-(N-Hydroxyamino)-2R-isobutyl-3S-(thienylthiomethyl)succinyl]-L-phenylalanine-N-methylamide] | – | – | good | good
3 | CNC(=O)[C@H](Cc1ccccc1)NC(=O)[C@H](CC(C)C)[C@H](CS)C(=O)NO [Example 5, [4-(N-Hydroxyamino)-2R-isobutyl-3S-(mercaptomethyl)succinyl]-L-phenylalanine-N-methylamide] | – | 0.003 | – | –

— patent US5530161A, “Hydroxamic acid based collagenase inhibitors” (priority 1994, dated 1996)
